Positions of bridges follow the written chain, without caps; N, C: chain ends. Residues, ends and D or L forms follow the SMILES beside them.
Tests used:
in vitro [1] = type: cell-based; settings: human
Outline: (§1)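 Cytotoxicity assessed by MTT assay and proliferation by ³H-thymidine incorporation, with peptides tested at concentrations up to 100 μM.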

SKOV3 cells = experiment: Disruption of human ovarian cancer cell (SKOV3) adhesion; type: cell-based; settings: for activity on SKOV3 cell adhesion: 0.01-1 mg/mL, up to 48 hours; for effect on SKOV3 cell adhesion: final concentration of 1 mg/mL media, within 24 hours
Excerpt: Within one representative cell adhesion assay, the addition of a modulating agent to cells that express a cadherin results in disruption of cell adhesion. A “cadherin-expressing cell,” as used herein, may be any type of cell that expresses at least one cadherin on the cell surface at a detectable level, using standard techniques such as immunocytochemical protocols (Blaschuk and Farookhi, Dev. Biol. 136:564-567, 1989). Cadherin-expressing cells include endothelial (e.g., bovine pulmonary artery endothelial cells), epithelial and/or cancer cells (e.g., the human ovarian cancer cell line SKOV3 (ATCC #HTB-77)). For example, such cells may be plated under standard conditions that permit cell adhesion in the presence and absence of modulating agent (e.g., 500 μg/mL). Disruption of cell adhesion may be determined visually within 24 hours, by observing retraction of the cells from one another.
The human ovarian cancer cell line SKOV3 (ATCC #HTB-77) expresses N-cadherin. SKOV3 cells were cultured in a modified MEM-based media containing 10% FCS. Cells were grown in T-250 culture flasks and maintained by periodic subculturing. Cyclic peptides were tested on cells grown in individual wells of 96-well culture dishes (surface area of each well was 0.32 cm^2). Cells were harvested from flasks and seeded at a density of 50,000 cells per well in 0.1 mL media containing the cyclic peptides at concentrations of 1, 0.1, or 0.01 mg/mL, or in the absence of cyclic peptide. Media control wells were also established. Cultures were evaluated periodically by microscopic examination under both bright field and phase contrast conditions. Cultures were maintained for 48 hours.

[2] = test system: angiogenesis in chick embryonic chorioallantoic membranes; experiment: Chick chorioallantoic membrane angiogenesis assay; type: in vivo; settings: for inhibition of angiogenesis, in words: 3, 17, and 33 μg/mesh; for percent inhibition of angiogenesis: 24 hours
Description: The chick chorioallantoic membrane assay was used to assess the effects of cyclic peptides on angiogenesis (Iruela-Arispe et al., Molecular Biology of the Cell 6:327-343, 1995). Cyclic peptides were embedded in a mesh composed of vitrogen at concentrations of 3, 17, and 33 μg/mesh. The meshes were then applied to 12-day-old chick embryonic chorioallantoic membranes. After 24 hours, the effects of the peptides on angiogenesis were assessed by computer assisted morphometric analysis.
For each concentration of cyclic peptide, the percent inhibition of angiogenesis (relative to the level of angiogenesis in the absence of cyclic peptide) is provided. Assays were performed in the presence (+) or absence (−) of […] VEGF. For example, the cyclic peptide N-Ac-CHAVC-NH2 (SEQ ID NO:10) inhibited angiogenesis by 46%, 51%, and 51% at concentrations of 3, 17, and 33 μg/mesh, respectively.

in vitro [3] = type: cell-based; settings: human; remark: listed apart in the source
Outline: as §1

in vitro [4] = type: cell-based; settings: human; remark: listed apart in the source
Outline: as §1

Row | Compound | IC50 (in vitro [1]) [µM] | IC50 (in vitro [3]) [µM] | IC50 (in vitro [4]) [µM] | activity on SKOV3 cell adhesion (SKOV3 cells) | inhibition of angiogenesis, in words [2] | effect on SKOV3 cell adhesion (SKOV3 cells) | other results
1 | CC(=O)N[C@H]1CSSC[C@@H](C(N)=O)NC(=O)[C@H](C(C)C)NC(=O)[C@H](C)NC(=O)[C@H](Cc2c[nH]cn2)NC1=O [N-Ac-CHAVC-NH2, N-Ac-Cys-His-Ala-Val-Cys-NH2] | – | – | – | – | – | disrupted SKOV3 cell adhesion | SKOV3 cell morphology (SKOV3 cells; 0.5 mg/ml, 24 hours): round-up; SKOV3 cell morphology (SKOV3 cells; 0.5 or 1 mg/ml, 24-48 hours): retract from one another and round-up
2 | CC(=O)N[C@H]1CSSC[C@@H](C(N)=O)NC(=O)[C@H](C(C)C)NC(=O)CNC(=O)[C@H](Cc2c[nH]cn2)NC1=O [N-Ac-CHGVC-NH2, reference compound] | – | – | – | – | – | had no affect on cell adhesion | –

Now from value to compound, other results behind:

Row | IC50 (in vitro [1]) [µM] | IC50 (in vitro [3]) [µM] | IC50 (in vitro [4]) [µM] | Compound | activity on SKOV3 cell adhesion (SKOV3 cells) | inhibition of angiogenesis, in words [2] | effect on SKOV3 cell adhesion (SKOV3 cells) | other results
3 | > 100 | > 100 | > 100 | CC(=O)N[C@H]1CSSC[C@@H](C(N)=O)NC(=O)[C@H](CC(=O)O)NC(=O)[C@H](C(C)C)NC(=O)[C@H](C)NC(=O)[C@H](Cc2c[nH]cn2)NC(=O)[C@H](C)NC1=O [N-Ac-CAHAVDC-NH2, N-Ac-Cys-Ala-His-Ala-Val-Asp-Cys-NH2] (Ac-CAHAVDC-NH2; disulfide 1-7) | inactive | inhibited angiogenesis significantly | – | –
4 | > 100 | > 100 | > 100 | CC(=O)N[C@H]1CSSC[C@@H](C(N)=O)NC(=O)[C@H](CO)NC(=O)[C@H](C(C)C)NC(=O)[C@H](C)NC(=O)[C@H](Cc2c[nH]cn2)NC1=O [N-Ac-CHAVSC-NH2, N-Ac-Cys-His-Ala-Val-Ser-Cys-NH2] (Ac-CHAVSC-NH2; disulfide 1-6) | – | relatively inactive | – | percent inhibition of angiogenesis ([2]; 3 μg/mesh, absence (−) of 0.01 mM VEGF): 11%; percent inhibition of angiogenesis ([2]; 3 μg/mesh, presence (+) of 0.01 mM VEGF): 17%; percent inhibition of angiogenesis ([2]; 17 μg/mesh, absence (−) of 0.01 mM VEGF): 12%; percent inhibition of angiogenesis ([2]; 17 μg/mesh, presence (+) of 0.01 mM VEGF): 16%; percent inhibition of angiogenesis ([2]; 33 μg/mesh, absence (−) of 0.01 mM VEGF): 17%; percent inhibition of angiogenesis ([2]; 33 μg/mesh, presence (+) of 0.01 mM VEGF): 19%
5 | > 100 | > 100 | > 100 | CC[C@H](C)[C@@H]1NC(=O)[C@H](CC(=O)O)NC(=O)[C@H](C(C)C)NC(=O)[C@H](C)NC(=O)[C@H](Cc2c[nH]cn2)NC(=O)[C@H](C)NC(=O)[C@@H](NC(C)=O)CSSC[C@@H](C(N)=O)NC1=O (Ac-CAHAVDIC-NH2; disulfide 1-8) | inactive | inhibited angiogenesis significantly | – | –
